What all share (experiment): inhibition of tumour cell growth, NCI panel, 48 h
In assay [1] the test system is SK-MEL-2 melanoma.
In assay [2] the test system is MDA-MB-231 breast.
For assay [3], the system named is UACC-62 melanoma.
Assay [4] concerns HCT-116 colon.
Assay [5] deals with MDA-MB-435.
Assay [6] deals with BT-549 breast.
For assay [7], the system named is SW-620 colon.
Assay [8] deals with MDA-N.
In assay [9] the test system is TK-10 renal.
Assay [10] relates to A498 renal.

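Each compound was tested at five concentrations against cells in 96-well plates for 48 hours. TGI marks complete inhibition of growth.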 A value given as a limit tells only on which side of the number the result lay.

For the compound `O[C@H]1[C@H](O)[C@@H](Cn2nnc(-c3ccccc3)c2-c2ccccc2)OCO[C@@H]1Cn1nnc(-c2ccccc2)c1-c1ccccc1`, the TGI in [1] came out at 9.41 µM; in assay [2], 16.4 µM; in assay [3], 11.7 µM; in assay [4], 9.63 µM; in assay [5] it was 22.8 µM; in assay [6] it was 23.7 µM. For the same compound, the TGI was found to be 46.6 µM in assay [7], 9.97 µM in assay [8], 19 µM in [9] and 16 µM in assay [10].

Regarding `CC(C)(SCc1ccccc1)C(N)C(=O)O` (stereo not given), the TGI in [1], in assay [2], in assay [3], in [4], in assay [5] and in [6] was above 100 µM throughout. For the same compound, the TGI in assay [7], in [8], in assay [9] and in assay [10] was above 100 µM in each case.

For `CC[C@H]1C=CCC[C@@]2(C[C@@H]3CC[C@@H]4[C@H](C(=O)OCCCCCCCCCCCCCCCC(=O)N(CCCNC(C)=O)C[C@H](CCNC(C)=O)OC(C)=O)[C@]5(CCC[C@@H](C)O5)NC(=[N+]34)N2)O1`, the TGI stood at 0.338 µM in assay [1]; 1.93 µM in assay [2]; 0.246 µM in assay [3]; 1.24 µM in assay [4]; 0.545 µM in assay [5]; 2.93 µM in [6]. In addition, the TGI in assay [7] is 2.14 µM; in assay [8] it was 1.36 µM; in assay [9], 2.07 µM; in assay [10], 1.09 µM.

With `Oc1ccccc1-c1nn2c(CCCCCCCCc3nnc4sc(-c5ccccc5O)nn34)nnc2s1`, the TGI in [1] was above 67.5 µM; in [2], above 100 µM; in assay [3], above 100 µM; in assay [4] it was above 71.2 µM; in assay [5], above 100 µM; in [6], above 100 µM. For the same compound, the TGI in assay [7] is above 100 µM; in assay [8], above 100 µM; in [9] it was above 100 µM; in assay [10], above 89 µM.

For `Cc1cc(C)c2c(=O)cc(-c3ccc4ccccc4c3)[nH]c2n1`, the TGI in assay [1] was above 100 µM; in [2] it was above 100 µM; in assay [3] it was above 100 µM; in assay [4], above 69.9 µM; in assay [5], 12 µM; in assay [6] it was above 100 µM. In addition, the TGI in [7] is above 100 µM; in [8], 17.2 µM; in assay [9] it was above 100 µM; in assay [10], 24.1 µM.

Turning to `Cc1nnc([C@@]2(C)CC[C@H]3[C@@H](CCC4=CC(=O)CC[C@@]43C)[C@@H]2CC#N)o1`, the TGI in assay [1], in assay [2], in [3], in assay [4], in [5] and in [6] was above 100 µM each time. Also, the TGI in [7], in assay [8], in assay [9] and in assay [10] was above 100 µM in each case.

Take `CC(=O)c1ccccc1NS(=O)(=O)c1ccc2nc(C)n(NS(=O)(=O)c3ccccc3C(C)=O)c(=O)c2c1`: the TGI in assay [1], in [2], in [3], in assay [4], in assay [5] and in assay [6] was above 100 µM throughout. For the same compound, the TGI in assay [7], in [8], in assay [9] and in assay [10] was above 100 µM throughout.

Take `CNc1nc2c(C)ccc3[nH]c(N(C)C)nc3c-2n1`: the TGI in assay [1], in assay [2], in [3], in assay [4], in assay [5] and in [6] was above 100 µM each time. Further, the TGI in assay [7], in [8], in assay [9] and in assay [10] was above 100 µM throughout.

Regarding `NC(=O)C1CCCN1C(=O)N(CCCl)N=O` (stereo not given), the TGI in [1], in assay [2], in assay [3], in [4], in assay [5] and in [6] was above 100 µM each time. Moreover, the TGI in [7], in assay [8], in [9] and in assay [10] was above 100 µM in each case.

With `O=C1Nc2ccccc2/C1=C\c1c(Cl)nc2n1CCS2`, the TGI was 32.5 µM in assay [1]; 53.2 µM in [2]; 32.2 µM in [3]; 68 µM in [4]; 43.9 µM in [5]; 52.8 µM in assay [6]. The TGI in assay [7] is above 100 µM; in [8] it was 43.6 µM; in assay [9], 49.9 µM; in [10], 61.4 µM.

Turning to `CCOC(=O)C1=C(C)NC(C)=C(C(=O)OCC)C1c1ccc(C)cc1`, the TGI is 98.4 µM in assay [1]; 84.3 µM in [2]; above 100 µM in assay [3]; above 100 µM in assay [4]; above 100 µM in assay [5]; above 100 µM in assay [6]. Besides, the TGI in [7] was above 100 µM; in assay [8], above 100 µM; in assay [9], above 100 µM; in assay [10] it was 97.9 µM.

As for `NC(=O)SCC(=O)Nc1ccc2ncccc2c1`, the TGI in assay [1], in assay [2], in assay [3], in [4], in assay [5] and in assay [6] was above 100 µM in each case. The TGI in [7], in assay [8], in assay [9] and in assay [10] was above 100 µM in each case.

With `CSc1ccc2c(cc1=O)[C@@H](NC(=O)c1ccc([N+](=O)[O-])cc1)CCc1cc(O)c(O)c(O)c1-2`, the TGI is above 100 µM in assay [1]; 81.2 µM in [2]; above 100 µM in [3]; above 100 µM in assay [4]; above 100 µM in assay [5]; above 100 µM in [6]. Further, the TGI in assay [7] is above 100 µM; in [8], 67.4 µM; in [9] it was above 100 µM; in [10] it was above 100 µM.

Turning to `Cc1cccc(C(=O)O)c1CC1NCCC2c3ccccc3NC12` (stereo not given), the TGI in [1], in assay [2], in assay [3], in assay [4], in assay [5] and in [6] was above 100 µM throughout. The TGI in assay [7], in assay [8], in [9] and in [10] was above 100 µM throughout.

Consider `O=S(=O)(/N=C(\NO)Nc1ccc(Cl)cc1)C1CC=C(c2ccon2)S1` (stereo not given), for which the TGI in [1] was 55.1 µM; in assay [2], above 100 µM; in [3], above 100 µM; in [4], above 100 µM; in assay [5], above 100 µM; in assay [6], above 63 µM. The TGI in assay [7] is above 100 µM; in [8], above 100 µM; in assay [9] it was above 100 µM; in assay [10], above 75.9 µM.

For the compound `COc1ccccc1/C=C/c1nc2ccccc2o1`, the TGI in [1], in assay [2], in assay [3], in assay [4], in assay [5] and in [6] was above 10 µM throughout. Besides, the TGI in [7], in assay [8], in assay [9] and in assay [10] was above 10 µM throughout.

Consider `O=C1C2CC=CCC2C(=O)N1n1c(Cc2ccccc2)n[nH]c1=O` (stereo not given), for which the TGI in assay [1], in [2], in assay [3], in assay [4], in [5] and in assay [6] was above 100 µM each time. Besides, the TGI in assay [7], in [8], in [9] and in assay [10] was above 100 µM each time.

`C/C(=C1\C(=O)C(c2ccccc2)N(c2ccccc2)C1=O)c1ccc(Cl)cc1` (stereo not given): the TGI in assay [1] came out at 45.4 µM; in assay [2], 57.6 µM; in assay [3], 30.8 µM; in assay [4], 36.3 µM; in assay [5], 32.8 µM; in assay [6], 49.2 µM. Moreover, the TGI turned out to be 72.3 µM in assay [7], 48 µM in assay [8], 52.5 µM in assay [9] and 33.1 µM in [10].

These data come from PubChem BioAssay (NCI).
